# Test results reported in ChEMBL document CHEMBL1126791, “Synthesis and antibacterial activity of a new series of tetracyclic pyridone carboxylic acids” (J Med Chem, 1993).
# Experiments:
# [1] = test system: Staphylococcus epidermidis; experiment: In vitro minimum inhibitory concentration against Staphylococcus epidermidis IAM 1296; format: functional
# Klebsiella pneumoniae = experiment: In vitro minimum inhibitory concentration against Klebsiella pneumoniae B54; format: functional
# Escherichia coli [2] = experiment: In vitro minimum inhibitory concentration against Escherichia coli NIHJ JC-2; format: functional
# Pseudomonas aeruginosa [3] = experiment: In vitro minimum inhibitory concentration against Pseudomonas aeruginosa IFO 3445; format: functional
# Enterococcus faecalis = experiment: In vitro minimum inhibitory concentration against E. Faecalis IID682; format: functional
# Escherichia coli [4] = experiment: In vitro minimum inhibitory concentration against Escherichia coli KL-16; format: functional
# Pseudomonas aeruginosa [5] = experiment: In vitro minimum inhibitory concentration against Pseudomonas aeruginosa E-2; format: functional
# Salmonella typhimurium = experiment: In vitro minimum inhibitory concentration against Salmonella Typhimurium IID 971; format: functional, Salmonella enterica subsp. enterica serovar Typhimurium; conditions: Salmonella enterica
# Staphylococcus aureus [6] = experiment: In vitro minimum inhibitory concentration against Staphylococcus aureus IID 803; format: functional
# Staphylococcus aureus [7] = experiment: In vitro minimum inhibitory concentration against Staphylococcus aureus FDA 209P JC-1; format: functional
# Escherichia coli [8] = experiment: In vitro minimum inhibitory concentration against Escherichia coli KC-14; format: functional
# Escherichia coli [9] = experiment: Inhibitory effect on DNA gyrase supercoiling activity against Escherichia coli KL-16; format: functional
# Staphylococcus aureus [10] = experiment: Oral antibacterial activity against Staphylococcus aureus IID 803 in mice (95% confidence limits); format: functional
# Pseudomonas aeruginosa [11] = experiment: Oral antibacterial activity against Pseudomonas aeruginosa E-2 in mice; format: functional
# Escherichia coli [12] = experiment: Oral antibacterial activity against Escherichia coli KC-14 in mice; format: functional
compound,measurement,setting,value
CN1CCN(c2c(F)cc3c(=O)c(C(=O)O)c4scc5n4c3c2C(=O)C5)CC1.Cl,MIC,[1],12.5 µg/mL
same,MIC,Klebsiella pneumoniae,25 µg/mL
same,MIC,Escherichia coli [2],12.5 µg/mL
same,MIC,Pseudomonas aeruginosa [3],100 µg/mL
same,MIC,Enterococcus faecalis,50 µg/mL
same,MIC,Escherichia coli [4],12.5 µg/mL
same,MIC,Pseudomonas aeruginosa [5],100 µg/mL
same,MIC,Salmonella typhimurium,12.5 µg/mL
same,MIC,Staphylococcus aureus [6],6.25 µg/mL
same,MIC,Staphylococcus aureus [7],6.25 µg/mL
same,MIC,Escherichia coli [8],12.5 µg/mL
same,IC50,Escherichia coli [9],> 10 µg/mL
C=CCN1Cc2csc3c(C(=O)O)c(=O)c4cc(F)c(N5CCN(C)CC5)c1c4n23.Cl,MIC,[1],0.78 µg/mL
same,MIC,Klebsiella pneumoniae,12.5 µg/mL
same,MIC,Escherichia coli [2],0.78 µg/mL
same,MIC,Pseudomonas aeruginosa [3],1.56 µg/mL
same,MIC,Enterococcus faecalis,3.13 µg/mL
same,MIC,Escherichia coli [4],0.78 µg/mL
same,MIC,Pseudomonas aeruginosa [5],6.25 µg/mL
same,MIC,Salmonella typhimurium,0.78 µg/mL
same,MIC,Staphylococcus aureus [6],0.39 µg/mL
same,MIC,Staphylococcus aureus [7],0.39 µg/mL
same,MIC,Escherichia coli [8],0.39 µg/mL
same,IC50,Escherichia coli [9],0.45 µg/mL
CCN1Cc2csc3c(C(=O)O)c(=O)c4cc(F)c(N5CCN(C)CC5)c1c4n23,MIC,[1],0.2 µg/mL
same,MIC,Klebsiella pneumoniae,0.2 µg/mL
same,MIC,Escherichia coli [2],0.39 µg/mL
same,MIC,Pseudomonas aeruginosa [3],3.13 µg/mL
same,MIC,Enterococcus faecalis,0.78 µg/mL
same,MIC,Escherichia coli [4],0.2 µg/mL
same,MIC,Pseudomonas aeruginosa [5],3.13 µg/mL
same,MIC,Salmonella typhimurium,0.2 µg/mL
same,MIC,Staphylococcus aureus [6],0.2 µg/mL
same,MIC,Staphylococcus aureus [7],0.2 µg/mL
same,MIC,Escherichia coli [8],0.2 µg/mL
same,IC50,Escherichia coli [9],0.25 µg/mL
CN1CCN(c2c(F)cc3c(=O)c(C(=O)O)c4scc5n4c3c2SC5)CC1,MIC,[1],0.39 µg/mL
same,MIC,Klebsiella pneumoniae,0.2 µg/mL
same,MIC,Escherichia coli [2],0.2 µg/mL
same,MIC,Pseudomonas aeruginosa [3],3.13 µg/mL
same,MIC,Enterococcus faecalis,0.78 µg/mL
same,MIC,Escherichia coli [4],0.2 µg/mL
same,MIC,Pseudomonas aeruginosa [5],3.13 µg/mL
same,MIC,Salmonella typhimurium,0.1 µg/mL
same,MIC,Staphylococcus aureus [6],0.2 µg/mL
same,MIC,Staphylococcus aureus [7],0.2 µg/mL
same,MIC,Escherichia coli [8],0.2 µg/mL
same,IC50,Escherichia coli [9],0.24 µg/mL
CN1CCN(c2c(F)cc3c(=O)c(C(=O)O)c4scc5n4c3c2N(C)C5)CC1,ED50,Staphylococcus aureus [10],2.8 mg/kg
same,ED50,Pseudomonas aeruginosa [11],10.2 mg/kg
same,MIC,[1],0.05 µg/mL
same,MIC,Klebsiella pneumoniae,0.05 µg/mL
same,MIC,Escherichia coli [2],0.05 µg/mL
same,MIC,Pseudomonas aeruginosa [3],0.39 µg/mL
same,MIC,Enterococcus faecalis,0.1 µg/mL
same,MIC,Escherichia coli [4],0.05 µg/mL
same,MIC,Pseudomonas aeruginosa [5],0.78 µg/mL
same,MIC,Salmonella typhimurium,0.05 µg/mL
same,MIC,Staphylococcus aureus [6],0.05 µg/mL
same,ED50,Escherichia coli [12],0.9 mg/kg
same,MIC,Staphylococcus aureus [7],0.05 µg/mL
same,MIC,Escherichia coli [8],0.05 µg/mL
same,IC50,Escherichia coli [9],0.16 µg/mL
CN1CCN(c2c(F)cc3c(=O)c(C(=O)O)c4scc5n4c3c2N(Cc2ccccc2)C5)CC1.Cl,MIC,[1],12.5 µg/mL
same,MIC,Klebsiella pneumoniae,50 µg/mL
same,MIC,Escherichia coli [2],25 µg/mL
same,MIC,Pseudomonas aeruginosa [3],100 µg/mL
same,MIC,Enterococcus faecalis,25 µg/mL
same,MIC,Escherichia coli [4],25 µg/mL
same,MIC,Pseudomonas aeruginosa [5],100 µg/mL
same,MIC,Salmonella typhimurium,50 µg/mL
same,MIC,Staphylococcus aureus [6],3.13 µg/mL
same,MIC,Staphylococcus aureus [7],6.25 µg/mL
same,MIC,Escherichia coli [8],12.5 µg/mL
same,IC50,Escherichia coli [9],> 10 µg/mL
CN1CCN(c2c(F)cc3c(=O)c(C(=O)O)c4scc5n4c3c2OC5)CC1,ED50,Staphylococcus aureus [10],12.3 mg/kg
same,ED50,Pseudomonas aeruginosa [11],11.7 mg/kg
same,MIC,[1],0.2 µg/mL
same,MIC,Klebsiella pneumoniae,0.1 µg/mL
same,MIC,Escherichia coli [2],0.1 µg/mL
same,MIC,Pseudomonas aeruginosa [3],0.78 µg/mL
same,MIC,Enterococcus faecalis,0.39 µg/mL
same,MIC,Escherichia coli [4],0.05 µg/mL
same,MIC,Pseudomonas aeruginosa [5],0.78 µg/mL
same,MIC,Salmonella typhimurium,0.05 µg/mL
same,MIC,Staphylococcus aureus [6],0.1 µg/mL
same,ED50,Escherichia coli [12],1.4 mg/kg
same,MIC,Staphylococcus aureus [7],0.1 µg/mL
same,MIC,Escherichia coli [8],0.1 µg/mL
same,IC50,Escherichia coli [9],0.14 µg/mL
CC1COc2c(N3CCN(C)CC3)c(F)cc3c(=O)c(C(=O)O)cn1c23 (centres undefined) [OFLOXACIN],MIC,[1],0.78 µg/mL
same,MIC,Klebsiella pneumoniae,0.1 µg/mL
same,MIC,Escherichia coli [2],0.1 µg/mL
same,MIC,Pseudomonas aeruginosa [3],1.56 µg/mL
same,MIC,Enterococcus faecalis,1.56 µg/mL
same,MIC,Pseudomonas aeruginosa [5],1.56 µg/mL
same,MIC,Salmonella typhimurium,0.05 µg/mL
same,MIC,Staphylococcus aureus [6],0.39 µg/mL
same,MIC,Staphylococcus aureus [7],0.39 µg/mL
same,MIC,Escherichia coli [8],0.1 µg/mL
CN1CCN(c2c(F)cc3c(=O)c(C(=O)O)c4scc5n4c3c2N(c2ccccc2)C5)CC1.Cl,MIC,[1],1.56 µg/mL
same,MIC,Klebsiella pneumoniae,3.13 µg/mL
same,MIC,Escherichia coli [2],3.13 µg/mL
same,MIC,Pseudomonas aeruginosa [3],100 µg/mL
same,MIC,Enterococcus faecalis,25 µg/mL
same,MIC,Escherichia coli [4],3.13 µg/mL
same,MIC,Pseudomonas aeruginosa [5],100 µg/mL
same,MIC,Salmonella typhimurium,3.13 µg/mL
same,MIC,Staphylococcus aureus [6],0.78 µg/mL
same,MIC,Staphylococcus aureus [7],1.56 µg/mL
same,MIC,Escherichia coli [8],3.13 µg/mL
same,IC50,Escherichia coli [9],1.76 µg/mL
CN1CCN(c2c(F)cc3c(=O)c(C(=O)O)c4scc5n4c3c2N(C2CC2)C5)CC1,MIC,[1],0.39 µg/mL
same,MIC,Klebsiella pneumoniae,0.2 µg/mL
same,MIC,Escherichia coli [2],0.2 µg/mL
same,MIC,Pseudomonas aeruginosa [3],1.56 µg/mL
same,MIC,Enterococcus faecalis,0.78 µg/mL
same,MIC,Escherichia coli [4],0.2 µg/mL
same,MIC,Pseudomonas aeruginosa [5],3.13 µg/mL
same,MIC,Salmonella typhimurium,0.39 µg/mL
same,MIC,Staphylococcus aureus [6],0.2 µg/mL
same,MIC,Staphylococcus aureus [7],0.2 µg/mL
same,MIC,Escherichia coli [8],0.1 µg/mL
same,IC50,Escherichia coli [9],0.34 µg/mL
